Data from ChEMBL document CHEMBL1687767, “New antiseptic peptides to protect against endotoxin-mediated shock” (Antimicrob Agents Chemother, 2010).
In brackets after ≈: the same amount, converted by molar mass. Activity calls are given as the source filed them. The calls are words filed in the database; no cut-off is given here. Residues, ends and D or L forms follow the SMILES beside them.

Tests used:
[1] = system: Stenotrophomonas maltophilia; assay: Antimicrobial activity against […] Stenotrophomonas maltophilia CUN 3998-00 by broth microdilution method; format: functional
Pseudomonas aeruginosa [2] = assay: Antimicrobial activity against Pseudomonas aeruginosa ATCC 27853 by broth microdilution method; format: functional
Escherichia coli = assay: Antimicrobial activity against Escherichia coli ATCC 25922 by broth microdilution method; format: functional
[3] = system: Bordetella bronchiseptica; assay: Antimicrobial activity against Bordetella bronchiseptica CUN11844-99 by broth microdilution method; format: functional
Mus musculus [4] = assay: Antisepsis activity in Pseudomonas aeruginosa LPS-induced C57BL/6 mouse lethal endotoxin shock model assessed as mouse survival at 12.5 ug, ip administered immediately after LPS challenge; format: functional, organism-based
Pseudomonas aeruginosa [5] = assay: Antimicrobial activity against Pseudomonas aeruginosa CUN 4158-02 by broth microdilution method; format: functional
Staphylococcus aureus [6] = assay: Antimicrobial activity against Staphylococcus aureus ATCC 25923 by broth microdilution method; format: functional
Acinetobacter baumannii = assay: Antimicrobial activity against […] Acinetobacter baumannii ATCC 19606 by broth microdilution method; format: functional
Staphylococcus aureus [7] = assay: Antimicrobial activity against methicillin-resistant Staphylococcus aureus CUN 3792-99 by broth microdilution method; format: functional
Homo sapiens [8] = species on record: Homo sapiens; assay: Antiinflammatory activity in human MNC assessed as inhibition of LPS-induced TNFalpha production at compound: LPS ratio of 100:1 weight percent by ELISA; format: functional
Staphylococcus aureus [9] = assay: Antimicrobial activity against methicillin-resistant Staphylococcus aureus ATCC 43300 by broth microdilution method; format: functional
Jurkat [10] = assay: Cytotoxicity against human Jurkat cells assessed as effect on respiration rate at 100 ug/ml by Chip-based Bionas system; format: cell-based
PBMC [11] = assay: Cytotoxicity against human PBMC cells assessed as effect on respiration rate at 100 ug/ml by Chip-based Bionas system; format: cell-based
HaCaT [12] = assay: Cytotoxicity against human HaCaT cells at 10 ug/ml by MTT assay; format: cell-based
HepG2 [13] = assay: Cytotoxicity against human HepG2 cells assessed as effect on respiration rate at 100 ug/ml by Chip-based Bionas system; format: cell-based
[14] = Toxicity in human RBC assessed as hemolysis upto 25 ug/ml; format: cell-based; conditions: erythrocyte
Lipopolysaccharide (LPS) = assay: Binding affinity to Salmonella enterica serovar Minnesota R60 LPS at [compound]/[LPS] ratio of 0.3 by isothermal titration calorimetry; conditions: Salmonella enterica subsp. enterica serovar Minnesota
HeLa [15] = assay: Cytotoxicity against human HeLa cells at 100 ug/ml by MTT assay; format: cell-based
Mus musculus [16] = assay: Antisepsis activity in Salmonella enterica serovar Minnesota R60 LPS-induced C57BL/6 mouse lethal endotoxin shock model assessed as mouse survival at 12.5 ug, ip administered immediately after LPS challenge; format: functional, organism-based
Jurkat [17] = assay: Cytotoxicity against human Jurkat cells assessed as effect on respiration rate at 10 ug/ml by Chip-based Bionas system; format: cell-based
HepG2 [18] = assay: Cytotoxicity against human HepG2 cells assessed as effect on respiration rate at 10 ug/ml by Chip-based Bionas system; format: cell-based
Mus musculus [19] = assay: Antisepsis activity in Salmonella enterica serovar Minnesota R60 LPS-induced C57BL/6 mouse lethal endotoxin shock model assessed as mouse survival at 2.5 ug, ip administered immediately after LPS challenge measured 48 hrs post LPS challenge; format: functional, organism-based
PBMC [20] = assay: Cytotoxicity against human PBMC cells assessed as effect on respiration rate at 10 ug/ml by Chip-based Bionas system; format: cell-based
HaCaT [21] = assay: Cytotoxicity against human HaCaT cells at 100 ug/ml by MTT assay; format: cell-based
[22] = Cytotoxicity against human LS 174T cells assessed as effect on respiration rate at 100 ug/ml by Chip-based Bionas system; format: cell-based; conditions: ls174t
[23] = Cytotoxicity against human LS 174T cells assessed as effect on respiration rate at 10 ug/ml by Chip-based Bionas system; format: cell-based; conditions: ls174t
HeLa [24] = assay: Cytotoxicity against human HeLa cells at 10 ug/ml by MTT assay; format: cell-based
Homo sapiens [25] = species on record: Homo sapiens; assay: Antiinflammatory activity in human MNC assessed as inhibition of LPS-induced TNFalpha production at compound: LPS ratio of <10:1 weight percent by ELISA; format: functional
Homo sapiens [26] = species on record: Homo sapiens; assay: Antiinflammatory activity in human MNC assessed as inhibition of LPS-induced TNFalpha production at compound: LPS ratio of 10:1 weight percent by ELISA; format: functional

Row | Molecule | MIC [1] | MIC (Pseudomonas aeruginosa [2]) | MIC (Escherichia coli) | MIC [3] | Activity (Mus musculus [4]) | MIC (Pseudomonas aeruginosa [5]) | MIC (Staphylococcus aureus [6]) | MIC (Acinetobacter baumannii) | MIC (Staphylococcus aureus [7]) | inhibition (Homo sapiens [8]) | MIC (Staphylococcus aureus [9]) | Activity [14] | further results
1 | N=C(N)NCCC[C@H](NC(=O)[C@H](Cc1ccc(O)cc1)NC(=O)[C@H](CCCCN)NC(=O)[C@H](CCCCN)NC(=O)[C@H](CS)NC(=O)CN)C(=O)N[C@@H](CCCNC(=N)N)C(=O)N[C@@H](Cc1ccccc1)C(=O)N[C@@H](CCCNC(=N)N)C(=O)N[C@@H](Cc1c[nH]c2ccccc12)C(=O)N[C@@H](CCCCN)C(=O)N[C@@H](Cc1ccccc1)C(=O)N[C@@H](CCCCN)C(=O)NCC(=O)N[C@@H](CCCCN)C(=O)N[C@@H](Cc1ccccc1)C(=O)N[C@@H](Cc1c[nH]c2ccccc12)C(=O)N[C@@H](Cc1ccccc1)C(=O)N[C@@H](Cc1c[nH]c2ccccc12)C(=O)N[C@@H](CS)C(=O)NCC(=O)O (H-GCKKYRRFRWKFKGKFWFWCG-OH) | 512 µg/mL (≈ 182 µM) | 128 µg/mL (≈ 45.5 µM) | 128 µg/mL (≈ 45.5 µM) | 32 µg/mL (≈ 11.4 µM) | Active | 256 µg/mL (≈ 90.9 µM) | 128 µg/mL (≈ 45.5 µM) | 64 µg/mL (≈ 22.7 µM) | 1020 µg/mL (≈ 364 µM) | Active | 128 µg/mL (≈ 45.5 µM) | – | –
2 | N=C(N)NCCC[C@H](NC(=O)[C@H](Cc1ccc(O)cc1)NC(=O)[C@H](CCCCN)NC(=O)[C@H](CCCCN)NC(=O)[C@H](CS)NC(=O)CN)C(=O)N[C@@H](CCCNC(=N)N)C(=O)N[C@@H](Cc1ccccc1)C(=O)N[C@@H](CCCNC(=N)N)C(=O)N[C@@H](Cc1c[nH]c2ccccc12)C(=O)N[C@@H](CCCCN)C(=O)N[C@@H](Cc1ccccc1)C(=O)N[C@@H](CCCCN)C(=O)NCC(=O)N[C@@H](CCCCN)C(=O)N[C@@H](Cc1ccccc1)C(=O)N[C@@H](Cc1c[nH]c2ccccc12)C(=O)N[C@@H](Cc1ccccc1)C(=O)N[C@@H](Cc1c[nH]c2ccccc12)C(=O)NCC(=O)O | – | – | – | – | – | – | – | – | – | Active | – | Non-toxic | Activity (Jurkat [10]): Toxic; Activity (PBMC [11]): Toxic; Activity (HaCaT [12]): Non-toxic; Activity (HepG2 [13]): Toxic; Activity (Lipopolysaccharide (LPS)): Active; Activity (HeLa [15]): Toxic; Activity (Mus musculus [16]): Active; Activity (Jurkat [17]): Non-toxic; Activity (HepG2 [18]): Non-toxic; Activity (Mus musculus [19]): Active; Activity (PBMC [20]): Non-toxic; Activity (HaCaT [21]): Toxic; Activity [22]: Toxic; Activity [23]: Non-toxic; Activity (HeLa [24]): Non-toxic
3 | POLYMYXIN B | – | – | – | – | Active | – | – | – | – | – | – | – | inhibition (Homo sapiens [25]): Active; Activity (Mus musculus [16]): Active; inhibition (Homo sapiens [26]): Active
4 | N=C(N)NCCC[C@H](NC(=O)[C@H](Cc1ccc(O)cc1)NC(=O)[C@H](CCCCN)NC(=O)[C@H](CCCCN)NC(=O)[C@H](CS)NC(=O)CN)C(=O)N[C@@H](CCCNC(=N)N)C(=O)N[C@@H](Cc1ccccc1)C(=O)N[C@@H](CCCNC(=N)N)C(=O)N[C@@H](Cc1c[nH]c2ccccc12)C(=O)N[C@@H](CCCCN)C(=O)N[C@@H](Cc1ccccc1)C(=O)N[C@@H](CCCCN)C(=O)NCC(=O)N[C@@H](CCCCN)C(=O)N[C@@H](Cc1ccccc1)C(=O)N[C@@H](Cc1c[nH]c2ccccc12)C(=O)N[C@@H](Cc1ccccc1)C(=O)N[C@@H](Cc1c[nH]c2ccccc12)C(=O)O (H-GCKKYRRFRWKFKGKFWFW-OH) | 128 µg/mL (≈ 48.2 µM) | 64 µg/mL (≈ 24.1 µM) | 64 µg/mL (≈ 24.1 µM) | 64 µg/mL (≈ 24.1 µM) | – | 128 µg/mL (≈ 48.2 µM) | 64 µg/mL (≈ 24.1 µM) | 64 µg/mL (≈ 24.1 µM) | 64 µg/mL (≈ 24.1 µM) | Active | 32 µg/mL (≈ 12.1 µM) | Non-toxic | –
5 | N=C(N)NCCC[C@H](NC(=O)CNC(=O)[C@H](CCCCN)NC(=O)[C@H](CCCNC(=N)N)NC(=O)[C@H](Cc1ccccc1)NC(=O)[C@H](CCCCN)NC(=O)[C@H](Cc1c[nH]c2ccccc12)NC(=O)[C@H](CCCNC(=N)N)NC(=O)[C@H](Cc1ccccc1)NC(=O)[C@H](CCCNC(=N)N)NC(=O)[C@H](CCCNC(=N)N)NC(=O)[C@H](Cc1ccc(O)cc1)NC(=O)[C@H](CCCCN)NC(=O)[C@H](CCCCN)NC(=O)CN)C(=O)N[C@@H](Cc1ccccc1)C(=O)N[C@@H](Cc1c[nH]c2ccccc12)C(=O)N[C@@H](Cc1ccccc1)C(=O)N[C@@H](Cc1c[nH]c2ccccc12)C(=O)NCC(=O)O (H-GKKYRRFRWKFRKGRFWFWG-OH) | 64 µg/mL (≈ 22.9 µM) | 16 µg/mL (≈ 5.73 µM) | 16 µg/mL (≈ 5.73 µM) | 4 µg/mL (≈ 1.43 µM) | inactive | 32 µg/mL (≈ 11.5 µM) | 16 µg/mL (≈ 5.73 µM) | 16 µg/mL (≈ 5.73 µM) | 16 µg/mL (≈ 5.73 µM) | Active | 16 µg/mL (≈ 5.73 µM) | – | –
6 | N=C(N)NCCC[C@H](NC(=O)[C@H](Cc1ccccc1)NC(=O)[C@H](CCCCN)NC(=O)[C@H](Cc1c[nH]c2ccccc12)NC(=O)[C@H](CS)NC(=O)[C@H](Cc1ccccc1)NC(=O)[C@H](CCCNC(=N)N)NC(=O)[C@H](Cc1ccc(O)cc1)NC(=O)[C@H](CCCCN)NC(=O)CNC(=O)[C@H](Cc1ccccc1)NC(=O)[C@H](CCCNC(=N)N)NC(=O)[C@H](Cc1c[nH]c2ccccc12)NC(=O)[C@H](CCCCN)NC(=O)CNC(=O)[C@H](Cc1ccccc1)NC(=O)[C@@H](N)CCCCN)C(=O)NCC(=O)N[C@@H](Cc1c[nH]c2ccccc12)C(=O)N[C@@H](CCCCN)C(=O)O (H-KFGKWRFGKYRFCWKFRGWK-OH) | – | – | – | – | – | – | – | – | – | – | – | Non-toxic | –
7 | N=C(N)NCCC[C@H](NC(=O)CNC(=O)[C@H](CCCCN)NC(=O)[C@H](Cc1ccccc1)NC(=O)[C@H](CCCCN)NC(=O)[C@H](Cc1c[nH]c2ccccc12)NC(=O)[C@H](CCCNC(=N)N)NC(=O)[C@H](Cc1ccccc1)NC(=O)[C@H](CCCCN)NC(=O)[C@H](CCCCN)NC(=O)[C@H](Cc1ccc(O)cc1)NC(=O)[C@H](CCCNC(=N)N)NC(=O)[C@H](CCCNC(=N)N)NC(=O)CN)C(=O)N[C@@H](Cc1c[nH]c2ccccc12)C(=O)N[C@@H](Cc1ccccc1)C(=O)N[C@@H](Cc1c[nH]c2ccccc12)C(=O)N[C@@H](Cc1ccccc1)C(=O)NCC(=O)O (H-GRRYKKFRWKFKGRWFWFG-OH) | 32 µg/mL (≈ 12.1 µM) | 16 µg/mL (≈ 6.07 µM) | 16 µg/mL (≈ 6.07 µM) | 128 µg/mL (≈ 48.5 µM) | inactive | 32 µg/mL (≈ 12.1 µM) | 8 µg/mL (≈ 3.03 µM) | 16 µg/mL (≈ 6.07 µM) | 8 µg/mL (≈ 3.03 µM) | Active | 8 µg/mL (≈ 3.03 µM) | Non-toxic | –
